Legend:
Nav 1.7 [1] = target: T1, Nav 1.7 (Homo sapiens (Human), UniProt Q15858); experiment: Nav 1.7 in vitro PX assay (PatchXpress whole cell voltage clamp); type: cell-based; conditions: 293 cells, human Nav1.7, partially inactivated state; read-out: Nav1.7 PX IC50 IP
In short: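 HEK293 cells stably expressing human Nav1.7, whole-cell voltage clamp on PatchXpress, held at potential giving 20–50% inactivation; current elicited by 20 msec pulse to −10 mV.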

Nav 1.7 [2] = target: T1, Nav 1.7; experiment: Nav 1.7 IWQ in vitro assay (IonWorks Quattro population patch-clamp); type: cell-based; conditions: 293 cells stably transfected with Nav 1.7; second part of table; read-out: Nav1.7 IWQ IC50 IP
In short: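 HEK293 cells stably expressing Nav 1.7, recorded by automated population patch-clamp with a train of depolarizations producing increasing inactivation. Single compound concentration added during 3–8 min unclamped period, then same protocol repeated. Leak-corrected current at 26th pulse to −20 mV gave percent block (duplicate); IC50 fitted from concentration–block curves.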

T1 sequence (Q15858 whole entry): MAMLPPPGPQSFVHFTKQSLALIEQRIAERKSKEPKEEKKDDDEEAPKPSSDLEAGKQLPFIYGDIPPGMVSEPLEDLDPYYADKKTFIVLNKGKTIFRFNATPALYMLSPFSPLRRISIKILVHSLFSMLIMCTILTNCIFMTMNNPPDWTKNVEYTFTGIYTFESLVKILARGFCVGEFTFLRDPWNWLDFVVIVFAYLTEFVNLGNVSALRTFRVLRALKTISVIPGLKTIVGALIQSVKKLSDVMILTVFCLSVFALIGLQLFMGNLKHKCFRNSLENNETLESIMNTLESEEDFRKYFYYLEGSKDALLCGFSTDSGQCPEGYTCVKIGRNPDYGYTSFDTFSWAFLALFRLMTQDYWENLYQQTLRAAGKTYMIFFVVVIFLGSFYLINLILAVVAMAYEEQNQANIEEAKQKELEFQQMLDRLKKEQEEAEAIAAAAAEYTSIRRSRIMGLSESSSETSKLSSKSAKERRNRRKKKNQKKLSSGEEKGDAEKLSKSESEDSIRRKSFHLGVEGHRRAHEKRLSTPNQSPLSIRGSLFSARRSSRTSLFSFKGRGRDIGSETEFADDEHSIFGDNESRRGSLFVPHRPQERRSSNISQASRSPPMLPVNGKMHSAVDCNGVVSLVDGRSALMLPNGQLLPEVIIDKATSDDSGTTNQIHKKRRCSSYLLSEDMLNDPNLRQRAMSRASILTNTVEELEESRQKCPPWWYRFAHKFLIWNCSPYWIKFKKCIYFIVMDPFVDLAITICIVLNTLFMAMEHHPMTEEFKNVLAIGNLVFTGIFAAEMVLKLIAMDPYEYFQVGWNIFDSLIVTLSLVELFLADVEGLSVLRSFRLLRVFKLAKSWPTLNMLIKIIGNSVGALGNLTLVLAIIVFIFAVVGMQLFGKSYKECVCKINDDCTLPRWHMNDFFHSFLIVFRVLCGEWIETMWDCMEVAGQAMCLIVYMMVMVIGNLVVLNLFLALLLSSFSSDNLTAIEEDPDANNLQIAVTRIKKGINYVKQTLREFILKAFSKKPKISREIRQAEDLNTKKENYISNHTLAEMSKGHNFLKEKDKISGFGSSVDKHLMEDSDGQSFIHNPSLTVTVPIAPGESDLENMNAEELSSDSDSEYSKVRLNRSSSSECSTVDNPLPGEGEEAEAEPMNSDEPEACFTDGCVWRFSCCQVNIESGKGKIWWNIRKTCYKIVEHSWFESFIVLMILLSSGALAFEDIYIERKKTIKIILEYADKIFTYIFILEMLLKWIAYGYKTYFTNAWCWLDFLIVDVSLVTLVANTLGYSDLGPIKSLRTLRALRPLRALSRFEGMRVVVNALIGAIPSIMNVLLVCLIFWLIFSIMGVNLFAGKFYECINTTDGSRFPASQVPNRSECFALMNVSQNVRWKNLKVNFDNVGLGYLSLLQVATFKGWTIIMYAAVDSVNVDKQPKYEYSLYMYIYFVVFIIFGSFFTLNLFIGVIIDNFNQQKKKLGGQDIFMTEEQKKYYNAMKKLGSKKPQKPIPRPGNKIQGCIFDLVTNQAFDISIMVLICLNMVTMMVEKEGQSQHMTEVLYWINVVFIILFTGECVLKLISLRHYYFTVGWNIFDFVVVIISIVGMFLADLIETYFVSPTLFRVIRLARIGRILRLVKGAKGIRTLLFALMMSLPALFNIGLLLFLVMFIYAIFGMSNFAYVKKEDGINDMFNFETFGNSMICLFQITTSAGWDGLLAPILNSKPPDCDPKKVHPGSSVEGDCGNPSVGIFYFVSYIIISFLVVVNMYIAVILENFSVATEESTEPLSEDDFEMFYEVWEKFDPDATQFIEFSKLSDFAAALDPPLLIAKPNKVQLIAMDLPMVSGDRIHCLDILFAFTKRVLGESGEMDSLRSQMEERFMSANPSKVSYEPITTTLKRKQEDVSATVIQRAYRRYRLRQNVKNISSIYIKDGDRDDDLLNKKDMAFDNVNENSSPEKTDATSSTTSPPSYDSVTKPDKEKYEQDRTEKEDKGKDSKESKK

| SMILES | IC50 (Nav 1.7 [1]) [nM] | IC50 (Nav 1.7 [2]) [nM] |
| --- | --- | --- |
| COc1cc(C#N)ccc1-c1ncc(F)c2cc(S(=O)(=O)Nc3ccncn3)ccc12 [Example 218, 1-(4-cyano-2-methoxyphenyl)-4-fluoro-N-(pyrimidin-4-yl)isoquinoline-6-sulfonamide] | 4630 | 70 |
| COc1cc2cc(S(=O)(=O)Nc3nccs3)ccc2c(-c2ccc(C(F)(F)F)cc2OC)n1 [Example 221, 3-METHOXY-1-(2-METHOXY-4-(TRIFLUOROMETHYL)PHENYL)-N-(THIAZOL-2-YL)ISOQUINOLINE-6-SULFONAMIDE] | 1530 | 110 |
| COc1cc(C(F)(F)F)ccc1-c1nc(N(C)C)cc2cc(S(=O)(=O)Nc3nccs3)ccc12 [Example 223, 3-(DIMETHYLAMINO)-1-(2-METHOXY-4-(TRIFLUOROMETHYL)PHENYL)-N-(THIAZOL-2-YL)ISOQUINOLINE-6-SULFONAMIDE] | 6520 | 1100 |
| NC(=O)c1cc(C(F)(F)F)ccc1-c1nccc2cc(S(=O)(=O)Nc3nccs3)ccc12 [Example 227, 2-(6-(N-(THIAZOL-2-YL)SULFAMOYL)ISOQUINOLIN-1-YL)-5-(TRIFLUOROMETHYL)BENZAMIDE] | 2270 | 110 |
| O=S(=O)(Nc1nccs1)c1ccc2c(-c3ccc(C(F)(F)F)cc3F)nccc2c1 [Example 228, 1-(2-FLUORO-4-(TRIFLUOROMETHYL)PHENYL)-N-(THIAZOL-2-YL)ISOQUINOLINE-6-SULFONAMIDE] | 1520 | 110 |
| O=S(=O)(Nc1nccs1)c1ccc2c(-c3ccc(C(F)(F)F)cc3CC(O)CO)nccc2c1 (centres unmarked) [Example 230, 1-(2-(2,3-DIHYDROXYPROPYL)-4-(TRIFLUOROMETHYL)PHENYL)-N-(THIAZOL-2-YL)ISOQUINOLINE-6-SULFONAMIDE 2,2,2-TRIFLUOROACETATE] | 590 | 30 |
| O=S(=O)(Nc1nccs1)c1ccc2c(N3CCCC3c3ccccc3)nccc2c1 (centres unmarked) [Example 237, 1-(2-PHENYLPYRROLIDIN-1-YL)-N-(THIAZOL-2-YL)ISOQUINOLINE-6-SULFONAMIDE] | 1230 | 740 |
| O=S(=O)(Nc1nccs1)c1ccc2c(N3CCC[C@H]3c3ccccc3)nccc2c1 [Example 239, (S)-1-(2-PHENYLPYRROLIDIN-1-YL)-N-(THIAZOL-2-YL)ISOQUINOLINE-6-SULFONAMIDE] | 4590 | 1450 |
| COc1cc(C(F)(F)F)ccc1-c1ncc(C#N)c2cc(S(=O)(=O)Nc3ccncn3)ccc12 [Example 242, 4-CYANO-1-(2-METHOXY-4-(TRIFLUOROMETHYL)PHENYL)-N-(PYRIMIDIN-4-YL)ISOQUINOLINE-6-SULFONAMIDE] | 3890 | 2500 |
| O=S(=O)(Nc1nccs1)c1ccc2c(N3CCC(c4ccccc4)C3)nccc2c1 (centres unmarked) [Example 243, 1-(3-PHENYLPYRROLIDIN-1-YL)-N-(THIAZOL-2-YL)ISOQUINOLINE-6-SULFONAMIDE] | 10700 | 780 |
| Cn1cccc1-c1nccc2cc(S(=O)(=O)Nc3nccs3)ccc12 [Example 244, 1-(1-METHYL-1H-PYRROL-2-YL)-N-(THIAZOL-2-YL)ISOQUINOLINE-6-SULFONAMIDE] | 11300 | 1170 |
| O=S(=O)(Nc1nccs1)c1ccc2c(C3CCCN3C3CCOCC3)nccc2c1 (centres unmarked) [Example 245, 1-(1-(TETRAHYDRO-2H-PYRAN-4-YL)PYRROLIDIN-2-YL)-N-(THIAZOL-2-YL)ISOQUINOLINE-6-SULFONAMIDE 2,2,2-TRIFLUOROACETATE] | 30800 | 2220 |
| COCCN1CCCC1c1nccc2cc(S(=O)(=O)Nc3nccs3)ccc12 (centres unmarked) [Example 246, 1-(1-(2-METHOXYETHYL)PYRROLIDIN-2-YL)-N-(THIAZOL-2-YL)ISOQUINOLINE-6-SULFONAMIDE] | 27400 | 2150 |
| COc1cc(C#N)ccc1-c1nncc2cc(S(=O)(=O)Nc3nccs3)ccc12 [Example 251, 1-(4-CYANO-2-METHOXYPHENYL)-N-(THIAZOL-2-YL)PHTHALAZINE-6-SULFONAMIDE] | 1990 | 80 |
| COc1ccccc1-c1nncc2cc(S(=O)(=O)Nc3nccs3)ccc12 [Example 252, 1-(2-METHOXYPHENYL)-N-(THIAZOL-2-YL)PHTHALAZINE-6-SULFONAMIDE] | 1920 | 120 |

Continued, values first:

| IC50 (Nav 1.7 [1]) [nM] | IC50 (Nav 1.7 [2]) [nM] | SMILES |
| --- | --- | --- |
| 86 | 20 | COc1cc(Cl)ccc1-c1ncc(F)c2cc(S(=O)(=O)Nc3nccs3)ccc12 [Example 215, 1-(4-CHLORO-2-METHOXYPHENYL)-4-FLUORO-N-(THIAZOL-2-YL)ISOQUINOLINE-6-SULFONAMIDE] |
| 559 | 40 | COc1cc(C(F)(F)F)ccc1-c1ncc(F)c2cc(S(=O)(=O)Nc3ccncn3)ccc12 [Example 216, 4-FLUORO-1-(2-METHOXY-4-(TRIFLUOROMETHYL)PHENYL)-N-(PYRIMIDIN-4-YL)ISOQUINOLINE-6-SULFONAMIDE] |
| 692 | 40 | COc1cc(Cl)ccc1-c1ncc(F)c2cc(S(=O)(=O)Nc3ccncn3)ccc12 [Example 217, 1-(4-CHLORO-2-METHOXYPHENYL)-4-FLUORO-N-(PYRIMIDIN-4-YL)ISOQUINOLINE-6-SULFONAMIDE] |
| 796 | 170 | COc1cc(C(F)(F)F)ccc1-c1nc(Cl)cc2cc(S(=O)(=O)Nc3nccs3)ccc12 [Example 219, 3-CHLORO-1-(2-METHOXY-4-(TRIFLUOROMETHYL)PHENYL)-N-(THIAZOL-2-YL)ISOQUINOLINE-6-SULFONAMIDE] |
| 450 | 60 | COc1cc(C(F)(F)F)ccc1-c1nc(C#N)cc2cc(S(=O)(=O)Nc3nccs3)ccc12 [Example 220, 3-CYANO-1-(2-METHOXY-4-(TRIFLUOROMETHYL)PHENYL)-N-(THIAZOL-2-YL)ISOQUINOLINE-6-SULFONAMIDE] |
| 905 | 20 | CNc1cc2cc(S(=O)(=O)Nc3nccs3)ccc2c(-c2ccc(C(F)(F)F)cc2OC)n1 [Example 222, 1-(2-METHOXY-4-(TRIFLUOROMETHYL)PHENYL)-3-(METHYLAMINO)-N-(THIAZOL-2-YL)ISOQUINOLINE-6-SULFONAMIDE] |
| 313 | 20 | COc1cc(C(F)F)ccc1-c1nccc2cc(S(=O)(=O)Nc3nccs3)ccc12 [Example 224, 1-(4-(DIFLUOROMETHYL)-2-METHOXYPHENYL)-N-(THIAZOL-2-YL)ISOQUINOLINE-6-SULFONAMIDE] |
| 741 | 30 | COCc1cc(C(F)(F)F)ccc1-c1nccc2cc(S(=O)(=O)Nc3nccs3)ccc12 [Example 225, 1-(2-(METHOXYMETHYL)-4-(TRIFLUOROMETHYL)PHENYL)-N-(THIAZOL-2-YL)ISOQUINOLINE-6-SULFONAMIDE] |
| 600 | 90 | COC(=N)c1cc(C(F)(F)F)ccc1-c1nccc2cc(S(=O)(=O)Nc3nccs3)ccc12 [Example 226, METHYL 2-(6-(N-(THIAZOL-2-YL)SULFAMOYL)ISOQUINOLIN-1-YL)-5-(TRIFLUOROMETHYL)BENZIMIDATE] |
| 420 | 10 | O=S(=O)(Nc1nccs1)c1ccc2c(-c3ccc(C(F)(F)F)cc3-n3ccnc3)nccc2c1 [Example 229, 1-(2-(1H-IMIDAZOL-1-YL)-4-(TRIFLUOROMETHYL)PHENYL)-N-(THIAZOL-2-YL)ISOQUINOLINE-6-SULFONAMIDE] |
| 270 | 40 | COc1cc(C(F)(F)F)ccc1-c1ncc(OC)c2cc(S(=O)(=O)Nc3nccs3)ccc12 [Example 231, 4-METHOXY-1-(2-METHOXY-4-(TRIFLUOROMETHYL)PHENYL)-N-(THIAZOL-2-YL)ISOQUINOLINE-6-SULFONAMIDE 2,2,2-TRIFLUOROACETATE] |
| 150 | 50 | O=S(=O)(Nc1nccs1)c1ccc2c(-c3ccc(C(F)(F)F)cc3Br)nccc2c1 [Example 235, 1-(2-BROMO-4-(TRIFLUOROMETHYL)PHENYL)-N-(THIAZOL-2-YL)ISOQUINOLINE-6-SULFONAMIDE] |
| 430 | 130 | O=S(=O)(Nc1ncns1)c1ccc2c(N3CCCC3c3ccccc3)nccc2c1 (centres unmarked) [Example 236, 1-(2-PHENYLPYRROLIDIN-1-YL)-N-(1,2,4-THIADIAZOL-5-YL)ISOQUINOLINE-6-SULFONAMIDE] |
| 770 | 140 | O=S(=O)(Nc1nccs1)c1ccc2c(N3CCC[C@@H]3c3ccccc3)nccc2c1 [Example 238, (R)-1-(2-phenylpyrrolidin-1-yl)-N-(thiazol-2-yl)isoquinoline-6-sulfonamide] |
| 390 | 190 | COc1cc(C(F)(F)F)ccc1-c1ncc(C#N)c2cc(S(=O)(=O)Nc3nccs3)ccc12 [Example 240, 4-CYANO-1-(2-METHOXY-4-(TRIFLUOROMETHYL)PHENYL)-N-(THIAZOL-2-YL)ISOQUINOLINE-6-SULFONAMIDE] |
| 480 | 240 | COc1cc(Cl)ccc1-c1ncc(C#N)c2cc(S(=O)(=O)Nc3nccs3)ccc12 [Example 241, 1-(4-chloro-2-methoxyphenyl)-4-cyano-N-(thiazol-2-yl)isoquinoline-6-sulfonamide] |
| 290 | 30 | COc1cc(Cl)ccc1-c1nncc2cc(S(=O)(=O)Nc3nccs3)ccc12 [Example 249, 1-(4-CHLORO-2-METHOXYPHENYL)-N-(THIAZOL-2-YL)PHTHALAZINE-6-SULFONAMIDE] |
| 1150 | 50 | COc1cc(F)ccc1-c1nncc2cc(S(=O)(=O)Nc3nccs3)ccc12 [Example 250, 1-(4-FLUORO-2-METHOXYPHENYL)-N-(THIAZOL-2-YL)PHTHALAZINE-6-SULFONAMIDE] |
| 340 | 20 | COc1cc(C(F)(F)F)ccc1-c1nncc2cc(S(=O)(=O)Nc3nccs3)ccc12 [Example 253, 1-(2-METHOXY-4-(TRIFLUOROMETHYL)PHENYL)-N-(THIAZOL-2-YL)PHTHALAZINE-6-SULFONAMIDE] |

From patent US9012443B2 (Amgen Inc., priority 2011, dated 2015)
